Results from patent publication US11773062B2, “Deuterated compounds” (priority 2021, dated 2023).

Tests used:
[1] = In vitro mouse hepatocytic intrinsic clearance; details: male, CD-1, mouse, hepatocytes
[2] = system: human (mixed gender) hepatocytes; assay: In vitro intrinsic clearance in human hepatocytes with and without MAO-A/B inhibitor combination (first experiment); details: for % change in half-life, MAO inhibitors vs no inhibitors / % change in intrinsic clearance, MAO inhibitors vs no inhibitors: human hepatocytes (Table 5)
Experimental: Standard final incubation conditions are 1 μM compound in buffer containing nominally ˜0.5 million viable cells/mL, ˜0.9% (v/v) acetonitrile (MeCN) and ˜0.1% (v/v) DMSO (specific assay concentrations outlined above, section 2).
Samples are then centrifuged at 4° C.

[3] = Human liver mitochondrial fraction intrinsic clearance of SPL026, SPL028i, SPL028iii, SPL028viii; assay type: in vitro ADME; details: for Intrinsic Clearance / half-life: 0.5 mg/mL human liver mitochondrial fraction (Table 10)
Text: (§1) Human Liver Mitochondrial (HLMt) fractions contain high quantities of MAO enzymes and therefore, provide a useful tool to measure the clearance of MAO substrates.

[4] = Human liver mitochondrial fraction intrinsic clearance of SPL026 with/without MAO-A and MAO-B inhibitors; assay type: in vitro ADME
Text: as §1

[5] = system: mouse (male CD-1) hepatocytes; assay: In vitro mouse hepatocytic intrinsic clearance; details: mouse CD-1 hepatocytes 0.367 million cells/mL, 5 μM (Table 8)
CYP2C9 = CYP2C9 (Homo sapiens, UniProt P11712); assay: in vitro; details: human, recombinant enzyme, pH 7.4
Sequence of CYP2C9 (P11712 whole entry): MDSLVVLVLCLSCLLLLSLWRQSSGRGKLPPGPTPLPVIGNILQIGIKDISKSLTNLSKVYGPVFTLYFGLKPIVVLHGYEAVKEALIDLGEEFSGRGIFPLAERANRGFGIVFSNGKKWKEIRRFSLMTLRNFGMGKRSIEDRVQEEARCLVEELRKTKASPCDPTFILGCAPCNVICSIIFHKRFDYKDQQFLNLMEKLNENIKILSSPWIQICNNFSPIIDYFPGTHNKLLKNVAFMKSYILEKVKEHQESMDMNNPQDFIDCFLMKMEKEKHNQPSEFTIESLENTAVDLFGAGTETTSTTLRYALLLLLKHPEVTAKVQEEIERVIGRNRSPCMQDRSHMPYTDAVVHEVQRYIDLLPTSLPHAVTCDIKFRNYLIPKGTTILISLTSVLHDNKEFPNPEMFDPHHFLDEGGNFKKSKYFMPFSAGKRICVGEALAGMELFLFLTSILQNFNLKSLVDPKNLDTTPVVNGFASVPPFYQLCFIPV
Experimental: (§2) Samples were taken at predetermined time points.
(§3) Samples were then centrifuged at −4° C.
(§4) Positive control markers are as specified in Table 11.

CYP2C8 = molecular target: T1, CYP2C8 (Homo sapiens, UniProt P10632); assay: in vitro; details: human, recombinant enzyme, pH 7.4
T1 sequence (P10632 1-490): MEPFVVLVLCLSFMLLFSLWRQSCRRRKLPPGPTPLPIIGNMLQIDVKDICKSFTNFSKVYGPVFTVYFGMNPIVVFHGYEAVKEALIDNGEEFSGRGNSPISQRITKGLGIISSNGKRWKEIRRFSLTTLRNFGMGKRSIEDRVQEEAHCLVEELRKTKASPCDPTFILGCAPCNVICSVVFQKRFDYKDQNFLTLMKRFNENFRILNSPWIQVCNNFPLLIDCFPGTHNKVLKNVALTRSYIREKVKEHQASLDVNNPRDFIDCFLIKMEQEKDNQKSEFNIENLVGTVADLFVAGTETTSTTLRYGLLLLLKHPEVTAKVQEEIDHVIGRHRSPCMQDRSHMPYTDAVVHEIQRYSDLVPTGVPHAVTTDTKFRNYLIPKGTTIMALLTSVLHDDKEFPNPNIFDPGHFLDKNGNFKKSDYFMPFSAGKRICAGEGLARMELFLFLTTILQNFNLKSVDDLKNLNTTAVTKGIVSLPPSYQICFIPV
Experimental: as §2, §3, §4

CYP3A5 = CYP3A5 (Homo sapiens, UniProt P20815); assay: in vitro; details: human, recombinant enzyme, pH 7.4
Sequence of CYP3A5 (P20815 whole entry): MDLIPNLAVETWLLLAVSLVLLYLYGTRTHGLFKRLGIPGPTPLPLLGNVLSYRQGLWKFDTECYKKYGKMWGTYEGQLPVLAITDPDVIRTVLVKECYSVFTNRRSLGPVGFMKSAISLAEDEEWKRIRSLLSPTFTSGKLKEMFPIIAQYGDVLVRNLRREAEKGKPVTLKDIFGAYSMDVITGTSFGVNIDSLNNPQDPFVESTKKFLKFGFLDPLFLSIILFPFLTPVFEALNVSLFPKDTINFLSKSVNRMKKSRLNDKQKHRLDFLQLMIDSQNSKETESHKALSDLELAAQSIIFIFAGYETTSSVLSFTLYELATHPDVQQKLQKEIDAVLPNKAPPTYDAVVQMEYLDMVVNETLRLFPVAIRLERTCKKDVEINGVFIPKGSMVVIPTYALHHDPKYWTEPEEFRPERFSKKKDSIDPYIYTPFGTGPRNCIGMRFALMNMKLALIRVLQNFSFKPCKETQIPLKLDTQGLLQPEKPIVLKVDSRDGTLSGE
Experimental: as §2, §3, §4

CYP3A4 = CYP3A4 (Homo sapiens, UniProt P08684); assay: in vitro; details: human, recombinant enzyme, pH 7.4
Sequence of CYP3A4 (P08684 whole entry): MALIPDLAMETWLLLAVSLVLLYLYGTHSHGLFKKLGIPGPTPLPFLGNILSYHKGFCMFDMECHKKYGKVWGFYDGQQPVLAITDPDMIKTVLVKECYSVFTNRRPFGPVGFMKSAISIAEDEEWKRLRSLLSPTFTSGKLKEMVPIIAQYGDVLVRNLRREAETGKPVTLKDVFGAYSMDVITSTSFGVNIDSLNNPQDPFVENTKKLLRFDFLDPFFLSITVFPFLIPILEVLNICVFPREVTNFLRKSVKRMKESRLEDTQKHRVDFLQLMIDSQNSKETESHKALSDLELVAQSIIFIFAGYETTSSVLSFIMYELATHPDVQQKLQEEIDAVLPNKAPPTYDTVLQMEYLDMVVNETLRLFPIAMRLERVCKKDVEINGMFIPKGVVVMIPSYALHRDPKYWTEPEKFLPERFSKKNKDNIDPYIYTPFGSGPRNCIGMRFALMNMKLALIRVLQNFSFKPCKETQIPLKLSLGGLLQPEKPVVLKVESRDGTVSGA
Experimental: as §2, §3, §4

CYP1A2 = molecular target: T2, CYP1A2 (Homo sapiens, UniProt P05177); assay: in vitro; details: human, recombinant enzyme, pH 7.4
T2 sequence (P05177 1-516): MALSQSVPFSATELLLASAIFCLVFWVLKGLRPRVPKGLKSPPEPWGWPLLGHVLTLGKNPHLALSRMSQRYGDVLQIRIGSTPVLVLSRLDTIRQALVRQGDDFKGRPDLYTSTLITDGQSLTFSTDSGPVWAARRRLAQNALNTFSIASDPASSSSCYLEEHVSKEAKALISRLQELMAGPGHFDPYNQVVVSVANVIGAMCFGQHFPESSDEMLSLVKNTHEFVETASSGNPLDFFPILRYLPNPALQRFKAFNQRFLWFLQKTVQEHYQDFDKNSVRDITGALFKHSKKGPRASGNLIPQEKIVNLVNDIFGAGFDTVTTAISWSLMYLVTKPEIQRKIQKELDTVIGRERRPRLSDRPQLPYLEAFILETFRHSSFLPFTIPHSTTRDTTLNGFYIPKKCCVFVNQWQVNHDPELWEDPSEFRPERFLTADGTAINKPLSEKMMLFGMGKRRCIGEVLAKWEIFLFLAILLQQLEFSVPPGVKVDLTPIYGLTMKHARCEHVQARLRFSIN
Experimental: as §2, §3, §4

CYP2C19 = CYP2C19 (Homo sapiens, UniProt P33261); assay: in vitro; details: human, recombinant enzyme, pH 7.4
Sequence of CYP2C19 (P33261 whole entry): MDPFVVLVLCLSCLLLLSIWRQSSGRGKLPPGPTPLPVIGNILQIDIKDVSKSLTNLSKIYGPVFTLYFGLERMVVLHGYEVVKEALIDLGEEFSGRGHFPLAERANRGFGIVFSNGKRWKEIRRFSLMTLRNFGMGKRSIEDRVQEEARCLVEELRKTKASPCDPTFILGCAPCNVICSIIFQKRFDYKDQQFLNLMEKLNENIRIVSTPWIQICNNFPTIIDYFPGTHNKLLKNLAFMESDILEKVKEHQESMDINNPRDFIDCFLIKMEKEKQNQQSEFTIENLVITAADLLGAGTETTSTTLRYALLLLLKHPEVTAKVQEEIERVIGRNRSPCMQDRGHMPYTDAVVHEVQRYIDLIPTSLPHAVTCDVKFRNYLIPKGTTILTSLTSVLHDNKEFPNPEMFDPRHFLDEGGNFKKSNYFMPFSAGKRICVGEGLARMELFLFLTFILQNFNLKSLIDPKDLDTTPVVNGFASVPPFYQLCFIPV
Experimental: as §2, §3, §4

[6] = human hepatocytes, with 100 nM clorgyline + 100 nM deprenyl/selegiline (Table 3)
[7] = human hepatocytes, with MAO-A/B inhibitor combination (Table 5)
[8] = human hepatocytes, without MAO inhibitors (Table 4; unit given only in Table 5)
[9] = human hepatocytes, without MAO-A/B inhibitor combination (Table 5)
[10] = 0.5 mg/mL human liver mitochondrial fraction, DMSO Vehicle (no inhibitor)
[11] = human hepatocytes, with MAO-A/B inhibitors (Table 4; unit given only in Table 5)

NCCc1c[nH]c2ccc(O)cc12 [Serotonin, reference compound]
half-life at 5 μM [1]: 22.8 min
hepatocyte CLint at 5 μM [1]: 83 µL/min/1e6 cells
% change in half-life, MAO inhibitors vs no inhibitors [2]: 73.75%
% change in intrinsic clearance, MAO inhibitors vs no inhibitors [2]: −282.18%
Intrinsic clearance, with inhibitors [2, 6]: 10.10 μL/min/million cells
Intrinsic clearance, with inhibitors [2, 7]: 10.1 μL/min/million cells
Half-life, without inhibitors [2, 8]: 33.00 min
Half-life, without inhibitors [2, 9]: 33 min
Intrinsic clearance, without inhibitors [2, 9]: 38.6 μL/min/million cells
Intrinsic Clearance [3]: 151.0 μL/min/mg protein
half-life [3]: 9.2 min
half-life [4, 10]: 11.1 min
half-life ([4]; human liver mitochondrial fraction, Clorgyline (MAO-A inhibitor) 100 nM): >420.2 min

[2H]C([2H])(Cc1c[nH]c2ccccc12)N(C)C [SPL028vi, α,α,-bis-deuterium-N,N-dimethyltryptamine]
w Half-life [5]: 16.6 min
w Intrinsic clearance [5]: 114.0 μL/min/million cells
% change in half-life, MAO inhibitors vs no inhibitors [2]: 20.55%
% change in intrinsic clearance, MAO inhibitors vs no inhibitors [2]: −26.41%
Intrinsic clearance, with inhibitors [2, 6]: 10.79 μL/min/million cells
Intrinsic clearance, with inhibitors [2, 7]: 10.79 μL/min/million cells
Half-life, without inhibitors [2, 8]: 95.04 min
Half-life, without inhibitors [2, 9]: 95.04 min
Intrinsic clearance, without inhibitors [2, 9]: 13.64 μL/min/million cells

O=C(O)Cc1ccccc1Nc1c(Cl)cccc1Cl [Diclofenac, reference compound]
half-life at 5 μM [1]: 34.1 min
hepatocyte CLint at 5 μM [1]: 57.7 µL/min/1e6 cells
half-life (CYP2C9): 1 min
intrinsic clearance, CYP isoform 2C9 (CYP2C9): 4731 μL/min/nmol CYP

CC(C)(O)c1ccccc1CC[C@@H](SCC1(CC(=O)O)CC1)c1cccc(/C=C/c2ccc3ccc(Cl)cc3n2)c1 [Montelukast, reference compound]
half-life (CYP2C8): 62 min
intrinsic clearance, CYP isoform 2C8 (CYP2C8): 122 μL/min/nmol CYP

[2H]C([2H])([2H])N(C([2H])([2H])[2H])C([2H])([2H])Cc1c[nH]c2ccccc12 [SPL028viii, α,α,bis-deuterio-N,N-hexadeuterio-dimethyltryptamine]
Intrinsic Clearance [3]: 10.9 μL/min/mg protein

Cc1ncc2n1-c1ccc(Cl)cc1C(c1ccccc1F)=NC2 [Midazolam, reference compound]
half-life (CYP3A5): 11 min
intrinsic clearance, CYP isoform 3A5 (CYP3A5): 623 μL/min/nmol CYP
half-life (CYP3A4): 5 min
intrinsic clearance, CYP isoform 3A4 (CYP3A4): 1369 μL/min/nmol CYP

[2H]C([2H])(Cc1c[nH]c2ccccc12)N(C)C [SPL028iii, α,α,-bis-deuterium-N,N-dimethyltryptamine]
w Half-life [5]: 17.9 min
w Intrinsic clearance [5]: 106.2 μL/min/million cells
% change in half-life, MAO inhibitors vs no inhibitors [2]: 25.93%
% change in intrinsic clearance, MAO inhibitors vs no inhibitors [2]: −35.65%
Intrinsic clearance, with inhibitors [2, 6]: 6.90 μL/min/million cells
Half-life, with inhibitors [2, 7]: 189.6 min
Intrinsic clearance, with inhibitors [2, 7]: 6.9 μL/min/million cells
Half-life, with inhibitors [2, 11]: 189.60 min
Intrinsic clearance, without inhibitors [2, 9]: 9.36 μL/min/million cells
Intrinsic Clearance [3]: 15.0 μL/min/mg protein
half-life [3]: 31.1 min

[2H]C([2H])(Cc1c[nH]c2ccccc12)N(C)C [SPL028iv, α,α,-bis-deuterium-N,N-dimethyltryptamine]
w Half-life [5]: 17.7 min
w Intrinsic clearance [5]: 106.9 μL/min/million cells
change in intrinsic clearance with the inclusion of MAO inhibitors ([2]; human hepatocytes): 49%
% change in half-life, MAO inhibitors vs no inhibitors [2]: 31.74%
% change in intrinsic clearance, MAO inhibitors vs no inhibitors [2]: −49.33%
Intrinsic clearance, with inhibitors [2, 6]: 7.46 μL/min/million cells
Half-life, with inhibitors [2, 7]: 171.17 min
Intrinsic clearance, with inhibitors [2, 7]: 7.46 μL/min/million cells
Half-life, with inhibitors [2, 11]: 171.17 min
Intrinsic clearance, without inhibitors [2, 9]: 11.14 μL/min/million cells

[2H]C([2H])(Cc1c[nH]c2ccccc12)N(C)C [SPL028v, α,α,-bis-deuterium-N,N-dimethyltryptamine]
w Half-life [5]: 16.1 min
w Intrinsic clearance [5]: 117.7 μL/min/million cells
% change in half-life, MAO inhibitors vs no inhibitors [2]: 11.47%
% change in intrinsic clearance, MAO inhibitors vs no inhibitors [2]: −15.56%
Intrinsic clearance, with inhibitors [2, 6]: 9.51 μL/min/million cells
Intrinsic clearance, with inhibitors [2, 7]: 9.51 μL/min/million cells
Intrinsic clearance, without inhibitors [2, 9]: 10.99 μL/min/million cells

NCc1ccccc1 [Benzylamine, reference compound]
half-life at 5 μM [1]: 14.3 min
hepatocyte CLint at 5 μM [1]: 134 µL/min/1e6 cells
% change in half-life, MAO inhibitors vs no inhibitors [2]: >83.41%
% change in intrinsic clearance, MAO inhibitors vs no inhibitors [2]: <−450%
Intrinsic clearance, with inhibitors [2, 6]: <3.0 μL/min/million cells
Half-life, with inhibitors [2, 7]: 460 min
Intrinsic clearance, with inhibitors [2, 7]: <3.0 μL/min/million cells
Half-life, with inhibitors [2, 11]: 460.00 min
Half-life, without inhibitors [2, 8]: 76.30 min
Half-life, without inhibitors [2, 9]: 76.3 min
Intrinsic clearance, without inhibitors [2, 9]: 16.7 μL/min/million cells
Intrinsic Clearance [3]: 60.0 μL/min/mg protein
half-life [3]: 23.2 min
fold increase in intrinsic clearance, human liver mitochondria compared to hepatocyte fraction ([3]; positive controls): ~3.6 fold
half-life [4, 10]: 30.4 min
half-life ([4]; human liver mitochondrial fraction, Deprenyl (MAO-B inhibitor) 100 nM): >420.2 min

Nc1c2c(nc3ccccc13)CCCC2 [Tacrine, reference compound]
half-life (CYP1A2): 37 min
intrinsic clearance, CYP isoform 1A2 (CYP1A2): 189 μL/min/nmol CYP

CC(C)NCC(O)COc1cccc2ccccc12 (stereo not shown) [Propranolol, reference compound]
half-life (CYP2C19): 12 min

COc1ccc([C@@H]2Sc3ccccc3N(CCN(C)C)C(=O)[C@@H]2OC(C)=O)cc1 [Diltiazem, reference compound]
half-life at 5 μM [1]: < 3 min
hepatocyte CLint at 5 μM [1]: > 460 µL/min/1e6 cells
